Experimental data taken from US12139499B2, “Heteroaryl compounds for treating Huntington's disease” (PTC THERAPEUTICS, INC., priority 2018, dated 2024).

test system: Endogenous Huntingtin Protein; assay: Endogenous Huntingtin Protein Assay (ELISA-based MSD electrochemiluminescence); type: cell-based; settings: Table 1
Summary of the method: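 Sandwich MSD electrochemiluminescence immunoassay. Capture used MW1 (expanded polyglutamine) or MAB2166 antibody coated at 1 μg/mL overnight at 4 °C. Samples were bound overnight at 4 °C, then a rabbit monoclonal detection antibody and SULFO-TAG anti-rabbit, each at 0.25 μg/mL, were applied for 1 h at room temperature.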

Structure (SMILES) | IC50 [nM]
CN(c1nc2cnc(-c3cc(F)c4nn(C)cc4c3)cc2s1)C1CC(C)(C)NC(C)(C)C1 [Compound 86, 6-(7-fluoro-2-methyl-2H-indazol-5-yl)-N-methyl-N-(2,2,6,6-tetramethylpiperidin-4-yl)[1,3]thiazolo[4,5-c]pyridin-2-amine] | ≤ 100
Cc1cn2cc(-c3cc4sc(N(C)[C@@H]5C[C@H]6CC[C@@H](C5)N6C)nc4cn3)cc(F)c2n1 [Compound 239, 6-(8-fluoro-2-methylimidazo[1,2-a]pyridin-6-yl)-N-methyl-N-[(3-exo)-8-methyl-8-azabicyclo[3.2.1]oct-3-yl][1,3]thiazolo[4,5-c]pyridin-2-amine] | 100 to 500
Cc1cn2nc(-c3cc(F)c4nc(N(C)[C@@H]5CCN[C@@H](C)C5)sc4c3)ccc2n1 [Compound 259, 4-fluoro-N-methyl-6-(2-methylimidazo[1,2-b]pyridazin-6-yl)-N-[(2S,4R)-2-methylpiperidin-4-yl]-1,3-benzothiazol-2-amine] | ≤ 100
Cc1nc2c(C#N)cc(-c3ncc4nc(N(C)C5CC(C)(C)NC(C)(C)C5)sc4n3)cc2o1 [Compound 275, 2-methyl-6-{2-[methyl(2,2,6,6-tetramethylpiperidin-4-yl)amino][1,3]thiazolo[5,4-d]pyrimidin-5-yl}-1,3-benzoxazole-4-carbonitrile] | ≤ 100
CN(c1nc2ccc(-c3cc(F)c4nn(C)cc4c3)nc2s1)C1CC2CCCC(C1)N2 (stereo not drawn) [Compound 295, N-(9-azabicyclo[3.3.1]nonan-3-yl)-5-(7-fluoro-2-methyl-2H-indazol-5-yl)-N-methyl[1,3]thiazolo[5,4-b]pyridin-2-amine] | 100 to 500
Cc1cn2cc(-c3ccc4nc(N(C)C5CC(C)(C)NC(C)(C)C5)sc4c3)cc2c(C)n1 [Compound 55, 6-(1,3-dimethylpyrrolo[1,2-a]pyrazin-7-yl)-N-methyl-N-(2,2,6,6-tetramethylpiperidin-4-yl)-1,3-benzothiazol-2-amine] | ≤ 100
Oc1cc(-c2cn[nH]c2)ccc1-c1cc2sc(N3CCC34CCNCC4)nc2nn1 [Compound 354, 2-[6-(1,7-diazaspiro[3.5]nonan-1-yl)[1,3]thiazolo[4,5-c]pyridazin-3-yl]-5-(1H-pyrazol-4-yl)phenol] | ≤ 100
Cc1cn2cc(-c3ccc4nc(N(C)C5CC(C)(C)NC(C)(C)C5)sc4c3)cc(C#N)c2n1 [Compound 138, 2-methyl-6-{2-[methyl(2,2,6,6-tetramethylpiperidin-4-yl)amino]-1,3-benzothiazol-6-yl}imidazo[1,2-a]pyridine-8-carbonitrile] | ≤ 100
Cc1cn2cc(-c3cc4sc(N(C)[C@@H]5CC(C)(C)NC(C)(C)[C@@H]5F)nc4cn3)cc(C#N)c2n1 [Compound 325, 6-(2-{[(3R,4R)-3-fluoro-2,2,6,6-tetramethylpiperidin-4-yl](methyl)amino}[1,3]thiazolo[4,5-c]pyridin-6-yl)-2-methylimidazo[1,2-a]pyridine-8-carbonitrile] | ≤ 100
Cc1nc2c(C#N)cc(-c3ncc4nc(N(C)C5CC6(C)CC[C@](C)(C5)N6)sc4n3)cc2o1 (stereo partly drawn) [Compound 290, 6-(2-{[(1R)-1,5-dimethyl-8-azabicyclo[3.2.1]octan-3-yl](methyl)amino}[1,3]thiazolo[5,4-d]pyrimidin-5-yl)-2-methyl-1,3-benzoxazole-4-carbonitrile] | ≤ 100
CN(c1nc2ncc(-c3ccc4nn(C)cc4c3)cc2s1)C1CC(C)(C)NC(C)(C)C1 [Compound 16, N-methyl-6-(2-methyl-2H-indazol-5-yl)-N-(2,2,6,6-tetramethylpiperidin-4-yl)[1,3]thiazolo[4,5-b]pyridin-2-amine] | 500 to 1000
Cn1cc2cc(-c3ccc4nc(C5CCNCC5)sc4c3)cc(F)c2n1 [Compound 83, 6-(7-fluoro-2-methyl-2H-indazol-5-yl)-2-(piperidin-4-yl)-1,3-benzothiazole] | ≤ 100
Cc1cn2cc(-c3cc4sc(N(C)C5CC(C)(C)NC(C)(C)C5)nc4cn3)ccc2n1 [Compound 87, N-methyl-6-(2-methylimidazo[1,2-a]pyridin-6-yl)-N-(2,2,6,6-tetramethylpiperidin-4-yl)[1,3]thiazolo[4,5-c]pyridin-2-amine] | ≤ 100
Cc1cc(-c2nc3ccc(C4CCNCC4)cc3s2)cc2cn(C)nc12 [Compound 50, 2-(2,7-dimethyl-2H-indazol-5-yl)-6-(piperidin-4-yl)-1,3-benzothiazole] | 100 to 500
Cc1csc2nc(-c3cc4sc(N(C)C5CC(C)(C)NC(C)(C)C5)nc4cn3)cn12 [Compound 305] | 500 to 1000
Cc1cn2cc(-c3ncc4nc(N(C)C5CC(C)(C)NC(C)(C)C5)sc4n3)cc2c(C)n1 [Compound 265, 5-(1,3-dimethylpyrrolo[1,2-a]pyrazin-7-yl)-N-methyl-N-(2,2,6,6-tetramethylpiperidin-4-yl)[1,3]thiazolo[5,4-d]pyrimidin-2-amine] | ≤ 100
Cc1cn2cc(-c3ccc4nc(N(C)C5CC6CCCC(C5)N6)sc4n3)cc(C#N)c2n1 (stereo not drawn) [Compound 279, 6-{2-[(3-exo)-9-azabicyclo[3.3.1]non-3-yl(methyl)amino][1,3]thiazolo[5,4-b]pyridin-5-yl}-2-methylimidazo[1,2-a]pyridine-8-carbonitrile] | ≤ 100

Structure (SMILES) | IC50 [nM]
Cc1cn2cc(-c3ncc4nc(N(C)C5CC6CCC(C5)N6)sc4n3)cc(F)c2n1 (stereo not drawn) [Compound 217, N-[(3-exo)-8-azabicyclo[3.2.1]oct-3-yl]-5-(8-fluoro-2-methylimidazo[1,2-a]pyridin-6-yl)-N-methyl[1,3]thiazolo[5,4-d]pyrimidin-2-amine] | ≤ 100
Cc1cn2nc(-c3ncc4nc(N(C)C5CC(C)(C)NC(C)(C)C5)sc4n3)cc(C)c2n1 [Compound 184, 5-(2,8-dimethylimidazo[1,2-b]pyridazin-6-yl)-N-methyl-N-(2,2,6,6-tetramethylpiperidin-4-yl)[1,3]thiazolo[5,4-d]pyrimidin-2-amine] | 1000 to 3000
Cc1cn2nc(-c3cc(F)c4nc(C5(C)CCNCC5)sc4c3)cc(C)c2n1 [Compound 210, 6-[4-fluoro-2-(4-methylpiperidin-4-yl)-1,3-benzothiazol-6-yl]-2,8-dimethylimidazo[1,2-b]pyridazine] | 500 to 1000
Cn1cc2cc(-c3ncc4nc(C5CCNCC5)sc4n3)cc(C#N)c2n1 [Compound 109, 2-methyl-5-[2-(piperidin-4-yl)[1,3]thiazolo[5,4-d]pyrimidin-5-yl]-2H-indazole-7-carbonitrile] | 100 to 500
CN(c1nc2nnc(-c3ccc(-c4cn[nH]c4)cc3O)cc2s1)[C@H]1CCN[C@H](CO)C1 [Compound 371, 2-(6-{[(2S,4S)-2-(hydroxymethyl)piperidin-4-yl](methyl)amino}[1,3]thiazolo[4,5-c]pyridazin-3-yl)-5-(1H-pyrazol-4-yl)phenol] | ≤ 100
Oc1cc(-c2cn[nH]c2)ccc1-c1cc2sc(N3CC[C@H]4CCNC[C@H]43)nc2nn1 [Compound 362, 2-{6-[(3aR,7aS)-octahydro-1H-pyrrolo[2,3-c]pyridin-1-yl][1,3]thiazolo[4,5-c]pyridazin-3-yl}-5-(1H-pyrazol-4-yl)phenol] | ≤ 100
Cn1cc2cc(-c3cc4sc(OC5CC(C)(C)NC(C)(C)C5)nc4cn3)cc(F)c2n1 [Compound 312, 6-(7-fluoro-2-methyl-2H-indazol-5-yl)-2-[(2,2,6,6-tetramethylpiperidin-4-yl)oxy][1,3]thiazolo[4,5-c]pyridine] | 100 to 500
Cn1cc2cc(-c3cnc4nc(NC5CCNCC5)sc4c3)ccc2n1 [Compound 15, 6-(2-methyl-2H-indazol-5-yl)-N-(piperidin-4-yl)[1,3]thiazolo[4,5-b]pyridin-2-amine] | 1000 to 3000
CN(c1nc2nnc(-c3ccc(-c4cn[nH]c4)cc3O)cc2s1)C1CCNCC1 [Compound 282, 2-{6-[methyl(piperidin-4-yl)amino][1,3]thiazolo[4,5-c]pyridazin-3-yl}-5-(1H-pyrazol-4-yl)phenol] | ≤ 100
Cc1cn2nc(-c3cc(F)c4nc(C5CCNCC5)sc4c3)cc(OCc3ccccc3)c2n1 [Compound 187, 8-(benzyloxy)-6-[4-fluoro-2-(piperidin-4-yl)-1,3-benzothiazol-6-yl]-2-methylimidazo[1,2-b]pyridazine] | ≤ 100
CN1C[C@H](Nc2nc3nnc(-c4ccc(-c5cn[nH]c5)cc4O)cc3s2)[C@@H](F)C1 [Compound 342, 2-(6-{[(3S,4S)-4-fluoro-1-methylpyrrolidin-3-yl]amino}[1,3]thiazolo[4,5-c]pyridazin-3-yl)-5-(1H-pyrazol-4-yl)phenol] | 100 to 500
Cc1cn2nc(-c3cc(F)c4nc(C5CCNCC5)sc4c3)cc(C)c2n1 [Compound 47, 6-[4-fluoro-2-(piperidin-4-yl)-1,3-benzothiazol-6-yl]-2,8-dimethylimidazo[1,2-b]pyridazine] | ≤ 100
Cc1cc(-c2ccc3nc(N(C)C4CC(C)NC(C)C4)sc3c2)cc2cn(C)nc12 (stereo not drawn) [Compound 175, 6-(2,7-dimethyl-2H-indazol-5-yl)-N-(2,6-dimethylpiperidin-4-yl)-N-methyl-1,3-benzothiazol-2-amine] | ≤ 100
Cc1cn2cc(-c3ncc4nc(N(C)[C@H]5C[C@]6(C)CC[C@](C)(C5)N6)sc4n3)cc2c(C)n1 [Compound 323, N-[(1R,3s,5S)-1,5-dimethyl-8-azabicyclo[3.2.1]octan-3-yl]-5-(1,3-dimethylpyrrolo[1,2-a]pyrazin-7-yl)-N-methyl[1,3]thiazolo[5,4-d]pyrimidin-2-amine] | ≤ 100
Cn1cc2cc(-c3cc(F)c4nc(C5=CCNCC5)sc4c3)cc(C#N)c2n1 [Compound 102, 5-[4-fluoro-2-(1,2,3,6-tetrahydropyridin-4-yl)-1,3-benzothiazol-6-yl]-2-methyl-2H-indazole-7-carbonitrile] | ≤ 100
Cc1cn2cc(-c3cc(F)c4nc(C5CCNCC5)sc4c3)nc2c(C)n1 [Compound 229, 2-[4-fluoro-2-(piperidin-4-yl)-1,3-benzothiazol-6-yl]-6,8-dimethylimidazo[1,2-a]pyrazine] | ≤ 100
